Assay results reported in publication PMC10323144, “Garbage in, garbage out: how reliable training data improved a virtual screening approach against SARS-CoV-2 MPro” (Frontiers in Pharmacology, 2023).
In brackets after ≈: the same amount, converted by molar mass. Several values for one entry are separate records, joined by “and”; a condition that tells them apart may be missing. Identical values can stand only once. Like-named read-outs stand apart in the source and are kept apart here. Marks after values point to notes of the source that are not given here.

How the values were obtained:
[1] = Cytotoxicity assay, WST-1; conditions: human, CC50 A549 cells
[2] = biological target: SARS-CoV-2 MPro (Severe acute respiratory syndrome coronavirus 2, UniProt P0DTD1); assay: MPro activity assay (de-quenching of Edans fluorescence on cleavage of a Dabcyl/Edans peptide); format: biochemical; conditions: for IC50: 60 min pre-incubation, 5 μM substrate; for activity at 10 µM: read-out: % activity MPro
[3] = system: human lung cell line A549; assay: Cytotoxicity assay, WST-1; conditions: read-out: CC50 A549 cells, 24 h
[4] = system: SARS-CoV-2 (βCoV/KOR/KCDC03/2020); assay: microbe, parasite or virus in culture; format: cell-based
[5] = in vitro; conditions: African green monkey
[6] = system: MPro; conditions: compiled from peer-reviewed sources (287 compounds) ref the 18 original articles; cited from earlier work
[7] = system: Vero cells
[8] = system: SARS-CoV-2; design: method as in Henss et al., 2021; conditions: 72 h assay ref Henss et al., 2021, cited from earlier work
[9] = Severe acute respiratory syndrome coronavirus 2, Vero, 24 h
[10] = Severe acute respiratory syndrome coronavirus 2, Vero, read-out: inhibition of viral replication

| Structure (SMILES) | CC50 at 24 h [1] [µM] | IC50 [4] [µM] | IC50 [4, 9] [µM] | IC50 [2] | CC50 [5] [µM] | other results |
| --- | --- | --- | --- | --- | --- | --- |
| [O-][n+]1onc2ccc(/C=C\c3ccc(Cl)cc3)cc21 [2d] | > 50 | – | – | – | – | activity at 25 µM ([2]; read-out: MPro activity (%)): 53.2 ± 0.2% |
| [O-][n+]1onc2ccc(/C=C/Sc3ccc(Cl)cc3)cc21 [3d] | ≤ 50 | 8.3 | ~8 | 0.73 ± 0.16 µM | 15.2 | CC50 [3]: < 50 µM |
| [O-][n+]1onc2ccc(/C=C/[S+]([O-])c3ccc(Cl)cc3)cc21 (centres unmarked) [4d] | ≤ 50 | 7.3 | ~8 | 0.121 ± 0.002 µM | 15.2 | CC50 [3]: 50 to 100 µM |
| O=C(/C=C/c1ccc2no[n+]([O-])c2c1)c1ccc(Cl)cc1 [5d] | > 50 | 43.2 | ~44 | 0.64 ± 0.02 µM | > 50 | – |
| O=C(OC[C@H]1O[C@@H]([S+]([O-])c2ccccc2)[C@H](OC(=O)c2ccccc2)[C@@H](OC(=O)c2ccccc2)[C@@H]1OC(=O)c1ccccc1)c1ccccc1 (some centres unmarked) [7a] | – | – | > 50 | 20.2 ± 1.9 µM | > 50 | inhibition at 25 µM ([4]; Severe acute respiratory syndrome coronavirus 2, Vero, at 25 μM, read-out: inhibition of viral replication): 15%; inhibition at 50 µM [4, 10]: 21% |
| O=CC(CC1CCNC1=O)NC(=O)C(CC1CCCCC1)NC(=O)c1cc2ccccc2[nH]1 (centres unmarked) [11a] | – | – | – | – | – | Class (MPro activity class) [6]: 1 (Compounds with IC50 < 10 µM or with a percentage of enzyme inhibition >50% at 10 µM were labelled as ACTIVE); activity at 10 µM [2]: 104 ± 1.1% |
| Nc1ccc(S(=O)(=O)c2ccc(Nc3c([N+](=O)[O-])c(Cl)cc4c3no[n+]4[O-])cc2)cc1 [22d] | > 100 | 44.8 | ~44 | 0.37 ± 0.085 µM | > 50 | – |
| O=C(/C=C/c1ccc2ccccc2c1)c1c(O)ccc2ccccc12 [27d] | – | – | – | 5.8 µM | – | antiviral activity (in words) [4]: lacked antiviral activity |
| O=C(/C=C/c1cccc2ccccc12)c1c(O)ccc2ccccc12 [28d] | > 100 | – | 48.9 | 1.4 µM and 1.35 µM | > 50 | impairment of cell viability ([7]; African green monkey): ~25% |
| O=c1c(Cl)c(Cl)cnn1Cc1nc2ccccc2c2ccccc12 [39d] | – | – | – | 2 µM | – | inhibition at 50 µM [4, 10]: 18%; impairment of cell viability ([7]; at 50 μM): 13% |
| CCN(CC)CCCC(C)Nc1ccnc2cc(Cl)ccc12 (centres unmarked) [Chloroquine] | – | 17.8 | 18 | – | > 150 | Class (MPro activity class) [6]: 0 (compounds with IC50 > 20 μM, percentage inhibition <80% at 20 µM or 50 μM, or percentage enzyme inhibition <50% at 10 µM were labelled as INACTIVE) |
| O=c1c(Cl)c(Cl)cnn1Cc1nc2ccccc2c2ccccc12 [Cpd 39] | 50 to 100 | – | > 50 | 1.97 ± 0.5 µM | > 50 | Class (MPro activity class) ([2]; in-house acquired data, internal screening under standardized conditions (128 compounds)): 0 (compounds with IC50 > 20 μM, percentage inhibition <80% at 20 µM or 50 μM, or percentage enzyme inhibition <50% at 10 µM were labelled as INACTIVE) |
| O=c1c2ccccc2[se]n1-c1ccccc1 [Ebselen] | > 100 | 9.7 | 10 | – | > 50 | – |
| Cc1cccc(C)c1OCC(=O)N[C@@H](Cc1ccccc1)[C@@H](O)C[C@H](Cc1ccccc1)NC(=O)[C@H](C(C)C)N1CCCNC1=O [Lopinavir] | – | 21.5 | 22 | – | > 150 | Class (MPro activity class) [6]: 0 (compounds with IC50 > 20 μM, percentage inhibition <80% at 20 µM or 50 μM, or percentage enzyme inhibition <50% at 10 µM were labelled as INACTIVE) |
| CCC(CC)COC(=O)[C@H](C)N[P@](=O)(OC[C@H]1O[C@@](C#N)(c2ccc3c(N)ncnn23)[C@H](O)[C@@H]1O)Oc1ccccc1 [Remdesivir] | – | 7.8 | 8 | – | > 50 | Class (MPro activity class) [6]: 0 (compounds with IC50 > 20 μM, percentage inhibition <80% at 20 µM or 50 μM, or percentage enzyme inhibition <50% at 10 µM were labelled as INACTIVE); SI: selectivity index = CC50 mammalian cell/IC50 SARS-CoV-2 [7]: >50 (>6.4) ^a |
| CC(C)(C)OC(=O)Nc1cccn(C(CC2CCCCC2)C(=O)NC(CC2CCNC2=O)C(=O)C(=O)NC2CC2)c1=O (centres unmarked) [compound 13a] | – | – | – | – | – | Class (MPro activity class) [6]: 1 (Compounds with IC50 < 10 µM or with a percentage of enzyme inhibition >50% at 10 µM were labelled as ACTIVE); activity at 10 µM [2]: 98.6 ± 0.9% |
| O=C(/C=C/c1ccc2ccccc2c1)c1ccccc1O [compound 25] | > 50 | 17.5 | – | 0.46 ± 0.21 µM | 38.8 | – |
| O=C(O[C@@H]1Cc2c(O)cc(O)cc2O[C@@H]1c1cc(O)c(O)c(O)c1)c1cc(O)c(O)c(O)c1 [epigallocatechin gallate] | – | – | – | – | – | IC50 SARS-CoV-2 replication [8]: 1.73 mg/L (≈ 3.77 µM); IC50 ([8]; read-out: IC50 SARS-CoV-2 replication): 3.9 µM |
